pIC50: −log10 of the molar value. Converted amounts (≈) assume the structure as drawn.
Legend:
HepG2 [1] = test: Antiproliferative activity against human HepG2 cells assessed as reduction in cell viability by CCK-8 assay; format: functional, cell-based
A549 [2] = test: Cytotoxicity against human A549 cells assessed as reduction in cell viability incubated for 24 hrs by CCK-8 assay; format: functional, cell-based; conditions: A549, 24 h
HeLa [3] = test: Cytotoxicity against human HeLa cells assessed as reduction in cell viability incubated for 24 hrs by CCK-8 assay; format: functional, cell-based
[4] = Cytotoxicity against human AML1 cells expressing FLT3-ITD mutant assessed as cell viability; format: functional, cell-based
HeLa [5] = test: Cytotoxicity against human HeLa cells assessed as cell growth inhibition; format: functional, cell-based
L1210 = test: Cytotoxicity against mouse L1210 assessed as cell growth inhibition; format: functional, cell-based
A549 [6] = test: Cytotoxicity against human A549 cells assessed as reduction in cell growth by MTT assay; format: functional, cell-based
HCT-116 [7] = test: Cytotoxicity against human HCT-116 cells assessed as reduction in cell growth by MTT assay; format: functional, cell-based
K562 = test: Cytotoxicity against human K562 cells assessed as cell growth inhibition by MTT assay; format: functional, cell-based
NCI-H1975 = test: Cytotoxicity against human NCI-H1975 cells assessed as cell growth inhibition by MTT assay; format: functional, cell-based
HL-60 = test: Cytotoxicity against human HL-60 cells assessed as cell growth inhibition by MTT assay; format: functional, cell-based
SF-268 = test: Cytotoxicity against human SF-268 cells assessed as inhibition of cell growth incubated for 72 hrs by SRB assay; format: functional, cell-based; conditions: SF-268, 72 h
MCF7 = test: Cytotoxicity against human MCF7 cells assessed as inhibition of cell growth incubated for 72 hrs by SRB assay; format: functional, cell-based; conditions: MCF7, 72 h
A549 [8] = test: Cytotoxicity against human A549 cells assessed as inhibition of cell growth incubated for 72 hrs by SRB assay; format: functional, cell-based; conditions: A549, 72 h
HepG2 [9] = test: Cytotoxicity against human HepG2 cells assessed as inhibition of cell growth incubated for 72 hrs by SRB assay; format: functional, cell-based; conditions: HepG2, 72 h
U-937 [10] = test: Cytotoxicity against human U-937 cells assessed as reduction in cell growth incubated for 48 hrs by CCK-8 assay; format: functional, cell-based; conditions: U-937, 48 h
PC-3 [11] = test: Cytotoxicity against human PC-3 cells assessed as reduction in cell growth incubated for 48 hrs by CCK-8 assay; format: functional, cell-based; conditions: PC-3, 48 h
A549 [12] = test: Cytotoxicity against human A549 cells assessed as reduction in cell viability incubated for 48 hrs by Celltiter-Glo assay; format: functional, cell-based; conditions: A549, 48 h
HCT-116 [13] = test: Cytotoxicity against human HCT-116 cells assessed as reduction in cell viability incubated for 48 hrs by Celltiter-Glo assay; format: functional, cell-based; conditions: HCT-116, 48 h
[14] = Cytotoxicity against human HaCaT cells incubated for 24 hrs by MTS assay; format: toxicity, cell-based
[15] = Cytotoxicity against human Huh7.5 cells assessed as reduction in cell viability incubated for 72 hrs by CCK-8 assay; format: toxicity, cell-based, Huh-7.5
A549 [16] = test: Cytotoxicity against human A549 cells assessed as reduction in cell viability incubated for 48 hrs by MTT assay; format: functional, cell-based; conditions: A549, 48 h
HCT-116 [17] = test: Cytotoxicity against human HCT-116 cells assessed as reduction in cell viability incubated for 48 hrs by MTT assay; format: functional, cell-based; conditions: HCT-116, 48 h
U-937 [18] = test: Cytotoxicity against human U-937 cells assessed as reduction in cell viability incubated for 72 hrs by MTT assay; format: functional, cell-based; conditions: U-937, 72 h
PC-3 [19] = test: Cytotoxicity against human PC-3 cells assessed as reduction in cell viability measured after 72 hrs by MTT assay; format: functional, cell-based; conditions: PC-3, 72 h

For `CS[C@@]12CC3=CC=C[C@H](OC(C)=O)[C@H]3N1C(=O)[C@]1(SC)CC3=CC=C[C@H](OC(C)=O)[C@H]3N1C2=O`, the IC50 (HepG2 [1]) was 42 µg/mL (≈ 83.6 µM).
Work on `CC[C@H](C)[C@]1(O)NC(=O)[C@@H](Cc2ccccc2)N2C(=O)C3=C(NC21)OC=CC=C3` (some centres undefined) yielded a pIC50 (A549 [2]) of 4.21 and a pIC50 (HeLa [3]) of 3.94.
With `CC1(C)C=Cc2c(ccc3c2N[C@@]24N5C(=O)[C@@H]6CCCN6C(=O)[C@]5(O)C[C@@]32O[C@H](CO)C4(C)C)O1` the pIC50 [4] was 5.14.
Compound `C=CC(C)(C)[C@]1(C[C@H]2NC(=O)[C@H]3CCCN3C2=O)C(=O)Nc2c1ccc1c2C=CC(C)(C)O1` has an IC50 (HeLa [5]) of 50 µg/mL (≈ 111 µM) and an IC50 (L1210) of 22 µg/mL (≈ 48.9 µM).
`CC1(C)C=Cc2c(ccc3c2N[C@@]24N5C(=O)[C@]6(O)CCCN6C(=O)[C@]5(O)C[C@@]32O[C@H](CO)C4(C)C)O1` showed a pIC50 [4] of 5.00.
For `CS[C@@]12CC3=CC=C[C@H](OC(C)=O)[C@H]3N1C(=O)[C@]1(SC)CC3=CC=C[C@H](O)[C@H]3N1C2=O`, the IC50 (HepG2 [1]) was 21 µg/mL (≈ 45.6 µM).
`CN1C(=O)[C@]23SSS[C@]1(C)C(=O)N2[C@@H]1Nc2ccccc2C1(C12c4ccccc4N[C@@H]1N1C(=O)[C@@]4(CO)SSS[C@]1(C(=O)N4C)[C@H]2O)[C@@H]3O` (some centres undefined) showed a pIC50 (A549 [6]) of 6.40, a pIC50 (HCT-116 [7]) of 6.40 and a pIC50 (K562) of 6.40. For the same compound, the pIC50 (NCI-H1975) was 6.70 and the pIC50 (HL-60) was 5.72.
With `CN1C(=O)[C@@]23CSC4=C(C(=O)c5ccccc5C4=O)N2C[C@@H]1CO3` the pIC50 (SF-268) was 4.92, the pIC50 (MCF7) was 4.68 and the pIC50 (A549 [8]) was 4.87. For the same compound, the pIC50 (HepG2 [9]) was 4.92.
For `COc1ccc2c3c(n(CC=C(C)C)c2c1)[C@H](C=C(C)C)N1C(=O)[C@@H]2CCCN2C(=O)[C@]1(O)[C@H]3O`, the pIC50 (U-937 [10]) was 4.85 and the pIC50 (PC-3 [11]) was 4.36.
`CN1C(=O)[C@]23SSS[C@]1(CO)C(=O)N2[C@H]1Nc2ccccc2C1(C12c4ccccc4N[C@H]1N1C(=O)[C@@]4(CO)SSSS[C@]1(C(=O)N4C)[C@H]2O)[C@@H]3O` (some centres undefined) gave a pIC50 (A549 [6]) of 5.72, a pIC50 (HCT-116 [7]) of 5.68 and a pIC50 (K562) of 5.72. The pIC50 (NCI-H1975) was 5.44 and the pIC50 (HL-60) was 5.72.
In the case of `CCCCCCCCC[C@@H](CC(=O)NCCCCN)N1CC(=O)N(O)[C@H](Cc2ccccc2)C1=O`, the pIC50 (A549 [12]) was 4.42, the pIC50 (HCT-116 [13]) was 4.40 and the IC50 at 24 h [14] was 37.5 µM.
`CO[C@@H]1CC(=O)[C@@H]2C[C@@]34SS[C@]5(C[C@H]6C(=O)CC(=O)[C@H](O)[C@H]6N5C3=O)C(=O)N4[C@@H]2[C@H]1O` showed an IC50 at 72 h [15] of 9.52 µM.
Compound `COc1ccc2c3c([nH]c2c1)[C@H](C=C(C)C)N1C(=O)[C@@H]2CCCN2C(=O)[C@]1(O)[C@H]3O` has a pIC50 (U-937 [10]) of 5.74 and a pIC50 (PC-3 [11]) of 5.18.
For `CCCCCCCCCC(CC(=O)NCCCN)N1CC(=O)N(O)C(Cc2ccccc2)C1=O` (centres undefined), the pIC50 (A549 [12]) was 4.36, the pIC50 (HCT-116 [13]) was 4.22 and the IC50 at 24 h [14] was 50 µM.
In the case of `CN1C(=O)[C@H]2CSC3=C(C(=O)c4ccccc4C3=O)N2C[C@@H]1CO`, the pIC50 (SF-268) was 4.77, the pIC50 (MCF7) was 4.59 and the pIC50 (A549 [8]) was 4.46. It also gave a pIC50 (HepG2 [9]) of 4.51.
Work on `COc1ccc(C[C@H]2NC(=O)[C@@H](CC(C)C)NC2=O)cc1O` yielded an IC50 (A549 [16]) of 35.4 µg/mL (≈ 116 µM) and an IC50 (HCT-116 [17]) of 75.4 µg/mL (≈ 246 µM).
`CS[C@]1(CO)C(=O)N2[C@H]3C(=CC=C[C@@H]3O)C[C@@]2(SC)C(=O)N1C` [BIS(DETHIO)BIS(METHYLTHIO)GLIOTOXIN] showed a pIC50 (U-937 [18]) of 6.70 and a pIC50 (PC-3 [19]) of 6.41.
Work on `CS[C@@]12CC3=CC=CC[C@H]3N1C(=O)[C@]1(SC)CC3=CC=C[C@H](OC(C)=O)[C@H]3N1C2=O` yielded an IC50 (HepG2 [1]) of 48 µg/mL (≈ 108 µM).
With `CC[C@H](C)[C@]1(OC)NC(=O)[C@@H](Cc2ccccc2)N2C(=O)C3=C(NC21)OC=CC=C3` (some centres undefined) the pIC50 (A549 [2]) was 4.00 and the pIC50 (HeLa [3]) was 3.72.
